Legend:
fertilization capacity = assay: Fertilization capacity, concentration dependence of cannabinoids; settings: higher concentrations
mouse sperm = assay: Mouse sperm pre-treated with drug, then artificial insemination into the mouse uterus; fertilization and embryo development scored; assay type: in vivo
Text: Studies show the cannabinoid implications in vivo in the mouse model. In separate experiments, mouse sperm are pre-treated with Meth-anandamide or AM-1346 and then the mouse sperm are inseminated into the mouse uterus (artificial insemination).
Each egg could be scored as 1-cell, 2-cell, 3-4 cell, 5-8 cell, morula, blastocysts or degenerated. Brief exposure of the sperm to the drug before insemination produces significant inhibition of 5 parameters. Compared to Control, the treated animals ovulate fewer ova (p<0.01, t-test). […] By Day 2, treatment produces a lower % of 2-cell eggs—again, fewer eggs are cleaving. […] The drug severely impairs fertilization and embryo development.

human sperm = assay: Human sperm vigorous swimming (Hyperactivation, computer-tracking); assay type: cell-based
Text: Fertilization assays include changes in human sperm vigorous swimming (Hyperactivation, computer-tracking), changes in % moving, and changes in the ability of drug-treated sperm to complete the acrosome reaction, and ability to bind to the human egg cover (Hemizona assay).

[1] = sperm pre-treated with 100 nM, Day 1
[2] = sperm pre-treated with 100 nM, Day 3

Compound: CCCCC/C=C\C/C=C\C/C=C\C/C=C\CCCC(=O)NCCO [Anandamide, arachidonoyl-ethanolamide]
- effect on fertilization capacity (fertilization capacity): trends towards reduced fertilization capacity

Compound: CCCCC/C=C\C/C=C\C/C=C\C/C=C\CCCC(=O)N[C@H](C)CO [Methanandamide, R-methanandamide]
- Number embryos per female (mouse sperm; sperm pre-treated with 100 nM before insemination): 4.3 ± 0.7
- % ova as 1-cell on Day 1 (mouse sperm; [1]): 91.3%
- Number of 2-cells on Day 1 (mouse sperm; [1]): 0.6 ± 0.2
- % embryos >2-cell on Day 3 (mouse sperm; [2]): 25.0%
- % embryos degenerated on Day 3 (mouse sperm; [2]): 44.2%
- effect on fertilization capacity (fertilization capacity): biphasic effect: Higher concentrations produce inhibition

Compound: CCCCC/C=C\C/C=C\C/C=C\C/C=C\CCCC(=O)NCc1ccoc1 [UCM]
- vigorous swimming of human sperm (human sperm): blocks
